From the supplement of paper PMC4862054
Values belong to the compound of their own block, whether it stands above or below them.

Experiments:
CAL-85-1 [1] = assay: normalised viability (% of control), CellTiter-Blue; higher = more viable cells (about 100 = DMSO control); details: incubation time: 72 h
How it was run: (§1)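 Each entry is normalised viability at a single listed concentration within a series. It comes from breast cancer cell lines incubated 72 h with compound in 384-well plates, then measured with CellTiter-Blue fluorescence at 560/590 nm. Every plate was normalised between vehicle (100) and a positive kill control (0).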

CAL-148 [2] = assay: as above; details: incubation time: 72 h
How it was run: as §1

HDQ-P1 [3] = assay: as above; details: incubation time: 72 h
How it was run: as §1

DU-4475 [4] = assay: as above; details: incubation time: 72 h
How it was run: as §1

MDA-MB-453 [5] = assay: as above; details: incubation time: 72 h
How it was run: as §1

CAL-51 [6] = assay: as above; details: incubation time: 72 h
How it was run: as §1

BT-549 = details: 72 h
How it was run: (§2)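 A 20 µl suspension of breast cancer cells was placed in 384-well plates that already contained compound at 5 concentrations in 10-fold steps across a compound-specific 10,000-fold range, and the plates were left for 72 h. CellTox Green fluorescence at 485/520 nm gave cell death, and CellTiter-Glo luminescence, read after 10 min at room temperature, gave viability. Each plate was normalised to 0.1 % DMSO and a positive kill control. EC50 was fitted from the curves and censored at the top concentration.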

CAL-51 [7] = details: 72 h
How it was run: as §2

CAL-148 [8] = details: 72 h
Procedure: (§3)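 Drug sensitivity and resistance testing (DSRT) of breast cancer cell lines in 384-well plates, 5 concentrations in 10-fold dilutions over a compound-specific 10,000-fold range. After 72 h, cytotoxicity was read by CellTox Green fluorescence and viability by CellTiter-Glo luminescence (multiplexed), normalised to DMSO and benzethonium chloride controls. EC50 is the inflection point of the fitted dose-response curve (bottom asymptote free, so it can be relative for partial curves) and is censored at the highest tested concentration. Rows with DSS 0 (no meaningful response) were excluded.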

DU-4475 [9] = details: 72 h
How it was run: (§4)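 To measure viability, fluorescence at 560/590 nm was read after 2.5 µl CellTiter-Blue had been added for 2 h at 37 °C. Cells from breast cancer lines had been seeded in 20 µl suspension onto 384-well plates pre-loaded with compound dissolved in 5 µl medium and kept for 72 h. EC50 comes from a fitted percent-inhibition dose-response curve censored at the highest concentration, after per-plate normalisation to vehicle and a positive kill control, Z'-factor checks, and removal of rows with zero drug sensitivity score.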

CAL-51 [10] = details: 72 h; remark: listed apart in the source
How it was run: as §4

CAL-148 [11] = details: 72 h; remark: listed apart in the source
How it was run: as §2

DU-4475 [12] = details: 72 h; remark: listed apart in the source
How it was run: as §2

MDA-MB-453 [13] = details: 72 h
How it was run: as §2

CAL-85-1 [14] = details: 72 h
Procedure: as §3

HDQ-P1 [15] = details: 72 h
Procedure: as §3

CAL-85-1 [16] = details: 72 h; remark: listed apart in the source
How it was run: as §4

CAL-148 [17] = details: 72 h; remark: listed apart in the source
How it was run: as §4

MDA-MB-453 [18] = details: 72 h; remark: listed apart in the source
How it was run: as §4

CAL-85-1 [19] = details: 72 h; remark: listed apart in the source
How it was run: as §2

CAL-120 = details: 72 h
How it was run: as §2

HCC1937 = details: 72 h
How it was run: as §2

MDA-MB-231 = details: 72 h
How it was run: as §2

MDA-MB-436 = details: 72 h
How it was run: as §2

HCC1599 = details: 72 h
How it was run: as §2

SK-BR-3 = details: 72 h
How it was run: as §2

MDA-MB-468 = details: 72 h
How it was run: as §2

BT-474 = details: 72 h
How it was run: as §2

Hs578T = details: 72 h
How it was run: as §2

SMILES: CS(=O)(=O)OCCCCOS(C)(=O)=O [Busulfan] (100000 nM)
- normalised viability (CAL-85-1 [1]): 105%
- normalised viability (CAL-148 [2]): 114%
- normalised viability (HDQ-P1 [3]): 109%
- normalised viability (DU-4475 [4]): 89%
- normalised viability (MDA-MB-453 [5]): 103%
- normalised viability (CAL-51 [6]): 91.9%

SMILES: COc1ncc(-c2ccc3nccc(-c4ccnnc4)c3c2)cc1NS(=O)(=O)c1ccc(F)cc1F (1000 nM)
- normalised viability (CAL-85-1 [1]): 18.6%
- normalised viability (CAL-148 [2]): 2.42%
- normalised viability (HDQ-P1 [3]): 14.4%
- normalised viability (DU-4475 [4]): 10.2%
- normalised viability (MDA-MB-453 [5]): 5.04%
- normalised viability (CAL-51 [6]): 3.63%

- EC50, CellTiter-Glo (BT-549): 650 nM
SMILES: COc1cc(Nc2ncc(F)c(Nc3ccc4c(n3)NC(=O)C(C)(C)O4)n2)cc(OC)c1OC [Tamatinib]
- EC50, CellTiter-Glo (CAL-51 [7]): 2310 nM

SMILES: O=c1[nH]cc(F)c(=O)[nH]1 [Fluorouracil] (10000 nM)
- normalised viability (CAL-85-1 [1]): 58.3%
- normalised viability (CAL-148 [2]): 55.4%
- normalised viability (HDQ-P1 [3]): 74.4%
- normalised viability (DU-4475 [4]): 75.2%
- normalised viability (MDA-MB-453 [5]): 72.9%
- normalised viability (CAL-51 [6]): 47.9%

SMILES: CC(C)C[C@H](NC(=O)[C@H](Cc1ccccc1)NC(=O)c1cnccn1)B(O)O [Bortezomib] (1000 nM)
- normalised viability (CAL-85-1 [1]): 2.28%
- normalised viability (CAL-148 [2]): 0.38%
- normalised viability (HDQ-P1 [3]): -1.16%
- normalised viability (DU-4475 [4]): 0.03%
- normalised viability (MDA-MB-453 [5]): 11.1%
- normalised viability (CAL-51 [6]): 1.02%

- EC50, CellTiter-Glo (MDA-MB-453 [13]): 7190 nM
SMILES: COc1ccc(C2=N[C@@H](c3ccc(Cl)cc3)[C@@H](c3ccc(Cl)cc3)N2C(=O)N2CCNC(=O)C2)c(OC(C)C)c1 [Nutlin-3]
- EC50, CellTox Green (CAL-148 [8]): 9050 nM
- EC50, CellTiter-Blue viability (DU-4475 [9]): 6310 nM
- EC50, CellTiter-Blue viability (CAL-51 [10]): 2750 nM
- EC50, CellTiter-Glo (CAL-148 [11]): 7030 nM
- EC50, CellTiter-Glo (DU-4475 [12]): 2950 nM
- EC50, CellTiter-Glo (CAL-51 [7]): 17.6 nM

- EC50, CellTiter-Blue viability (MDA-MB-453 [18]): 5880 nM
- EC50, CellTiter-Glo (HCC1937): 211 nM
- EC50, CellTiter-Glo (MDA-MB-231): 687 nM
- EC50, CellTiter-Glo (MDA-MB-436): 57.7 nM
- EC50, CellTiter-Glo (HCC1599): 27 nM
- EC50, CellTiter-Glo (SK-BR-3): 96.6 nM
- EC50, CellTiter-Glo (MDA-MB-468): 240 nM
- EC50, CellTiter-Glo (BT-474): 555 nM
SMILES: O=c1[nH]c(=O)n([C@H]2C[C@H](O)[C@@H](CO)O2)cc1F [Floxuridine]
- EC50, CellTox Green (CAL-85-1 [14]): 4650 nM
- EC50, CellTox Green (HDQ-P1 [15]): 3070 nM
- EC50, CellTiter-Blue viability (CAL-85-1 [16]): 66.3 nM
- EC50, CellTiter-Blue viability (CAL-148 [17]): 19.8 nM
- EC50, CellTiter-Blue viability (CAL-51 [10]): 46.9 nM
- EC50, CellTiter-Glo (CAL-85-1 [19]): 79.5 nM
- EC50, CellTiter-Glo (CAL-120): 420 nM
- EC50, CellTiter-Glo (DU-4475 [12]): 1580 nM
- EC50, CellTiter-Glo (Hs578T): 34 nM
- EC50, CellTiter-Glo (CAL-51 [7]): 80.3 nM

SMILES: C#Cc1cccc(Nc2ncnc3cc(OC)c(OCCCCCCC(=O)NO)cc23)c1 [CUDC-101] (10000 nM)
- normalised viability (CAL-85-1 [1]): 1.33%
- normalised viability (CAL-148 [2]): 0.77%
- normalised viability (HDQ-P1 [3]): 19.3%
- normalised viability (DU-4475 [4]): 1.42%
- normalised viability (MDA-MB-453 [5]): 0.71%
- normalised viability (CAL-51 [6]): 18.1%
